Results published in article PMC9749932, “A high-throughput effector screen identifies a novel small molecule scaffold for inhibition of ten-eleven translocation dioxygenase 2” (RSC Medicinal Chemistry, 2022).
Where two headings read alike, the source gives them in different places.

Experiments:
human TET2 [1] = molecular target: T1, human TET2 (Homo sapiens, UniProt Q6N021); conditions: for inhibition of TET2: additional experiments, data not shown, assay format not stated; for IC50 / inhibition of TET2 activity (in words): MALDI assay; for IC50: resynthesized/synthesized compounds, highest concentration 200 µM; for inhibition of TET2 activity (in words): synthesized compounds
TET2 = test system: TET2; parameters: method as in PMID 35586434; conditions: cited from earlier work
TET1 = test system: TET1; parameters: method as in PMID 35586434; conditions: cited from earlier work
human TET2 [2] = molecular target: T1, human TET2; conditions: FRET assay dose response; three independent experiments with technical duplicates
Protocol: Use of a DNA duplex terminally labelled with a FRET donor/acceptor dye pair (Cy3/Cy5) thereby enables measuring the amount of caC product generated from an mC duplex by TET (Fig. 1A). […] We identified an universal buffer system (50 mM potassium acetate, 20 mM Tris-acetate, 10 mM magnesium acetate, 100 μg ml^−1 BSA, pH 7.9) that was compatible with the activity of both TET2 and MspI, and thus was applicable to one pot reactions without intermediate purification steps. We incubated 0.5 μM of the DNA duplex with TET2 at different concentrations under aerobic conditions and in the presence of essential assay components, i.e. α-KG, ascorbate, dithiothreitol (DTT), and Fe(II) at 37 °C and pH 8 for 1 hour. We then added 20 U MspI enzyme to determine the caC level generated by TET2-mediated oxidation.
For screening, we premixed the annealed oligonucleotides with TET2 and all other essential components except Fe(II) in 1536-well plates, followed by the acoustic transfer of test compounds into each well at a final concentration of 50 μM. […] In order to distinguish the false-positive hits, we normalized the final Cy5 fluorescence of each well to its respective initial value immediately after MspI addition. […]
fluorescence signals were recorded on an Infinite® M1000 (Tecan). […]

| SMILES | IC50 (human TET2 [1]) | also measured |
| --- | --- | --- |
| O=C(O)c1ccnc(Br)c1 [2-bromoisonicotinic acid, reference compound] | – | inhibition of TET2 (human TET2 [1]): no inhibition |
| Nc1nc(=O)n(-c2cccc(-c3ccccc3)c2)cc1Cl [Bobcat339] | – | inhibition of TET2 (TET2): not be an inhibitor; inhibition of TET1 (TET1): not be an inhibitor |
| CC(=O)N(O)CCCCCNC(=O)CCC(=O)N(O)CCCCCNC(=O)CCC(=O)N(O)CCCCCN [DFOA, deferoxamine] | – | IC50 (human TET2 [2]): 46 µM |
| CC(C)OS(=O)(=O)c1ccc(F)c2ncc(I)cc12 [compound 5] | > 200 µM | – |
| CCCCCOS(=O)(=O)c1ccc(F)c2ncc(I)cc12 [compound 6] | > 200 µM | – |
| NS(=O)(=O)c1ccc(F)c2ncc(I)cc12 [compound 8] | 86.6 ± 5.6 µM | – |
| CNS(=O)(=O)c1ccc(F)c2ncc(I)cc12 [compound 9] | > 200 µM | inhibition of TET2 activity (in words) (human TET2 [1]): inactive |
| O=S(=O)(c1ccc(F)c2ncc(I)cc12)N1CCCC1 [compound 10] | > 200 µM | inhibition of TET2 activity (in words) (human TET2 [1]): inactive |
| O=S(=O)(Nc1ccccc1)c1ccc(F)c2ncc(I)cc12 [compound 11] | 23.9 ± 4.1 µM | – |
| O=S(=O)(NCc1ccccc1)c1ccc(F)c2ncc(I)cc12 [compound 13] | > 200 µM | – |
| O=S(=O)(NCCc1ccccc1)c1ccc(F)c2ncc(I)cc12 [compound 14] | > 200 µM | – |
| O=S(=O)(Nc1cccc(O)c1)c1ccc(F)c2ncc(I)cc12 [compound 16] | > 200 µM | – |
| Nc1ccccc1S(=O)(=O)O [o-anilinesulfonic acid, reference compound] | – | inhibition of TET2 (human TET2 [1]): no inhibition |
| Cc1ccc(S(=O)(=O)O)cc1 [p-toluenesulfonic acid, reference compound] | – | inhibition of TET2 (human TET2 [1]): no inhibition |
